Results from ChEMBL document CHEMBL1144405, “Synthesis and cellular studies of nonaggregated water-soluble phthalocyanines” (J Med Chem, 2005).

Columns and labels:
[1] = test system: HEp-2; experiment: Inhibitory concentration was measured against human HEp2 cells; upon exposure to light (1 J/cm**2); format: functional, cell-based; conditions: HEp-2, light or radiation study
[2] = test system: V79; experiment: Percent of cell viability for the compound was measured in hamster V79 cells; format: functional, Cricetulus griseus
[3] = test system: HEp2 (human); experiment: Inhibitory concentration was measured against human HEp2 cells; upon exposure to light (1 J/cm**2); conditions: HEp2, light or radiation study
[4] = test system: HEp-2; experiment: Percent of cell viability for the compound was measured in human HEp2 cells; format: functional

Row | IC50 [1] [µM] | IC50 [3] [µM] | SMILES | Viability [2] [%] | Viability [4] [%]
1 | 4.5 | 4.5 | O=C([O-])c1cc(Oc2cc3c(cc2Oc2cc(C(=O)[O-])cc(C(=O)O)c2)-c2nc-3nc3[nH]c(nc4nc(nc5[nH]c(n2)c2cc(Oc6cc(C(=O)[O-])cc(C(=O)[O-])c6)c(Oc6cc(C(=O)[O-])cc(C(=O)O)c6)cc52)-c2cc(Oc5cc(C(=O)[O-])cc(C(=O)O)c5)c(Oc5cc(C(=O)[O-])cc(C(=O)O)c5)cc2-4)c2cc(Oc4cc(C(=O)[O-])cc(C(=O)O)c4)c(Oc4cc(C(=O)[O-])cc(C(=O)[O-])c4)cc32)cc(C(=O)[O-])c1.[Na+].[Na+].[Na+].[Na+].[Na+].[Na+].[Na+].[Na+].[Na+].[Zn+2] | 80 | 80
2 | – | – | O=C(O)c1cc(Oc2cc3c(cc2Oc2cc(C(=O)O)cc(C(=O)O)c2)-c2nc-3nc3[n-]c(nc4nc(nc5[n-]c(n2)c2cc(Oc6cc(C(=O)O)cc(C(=O)O)c6)c(Oc6cc(C(=O)O)cc(C(=O)O)c6)cc52)-c2cc(Oc5cc(C(=O)O)cc(C(=O)O)c5)c(Oc5cc(C(=O)O)cc(C(=O)O)c5)cc2-4)c2cc(Oc4cc(C(=O)O)cc(C(=O)O)c4)c(Oc4cc(C(=O)O)cc(C(=O)O)c4)cc32)cc(C(=O)O)c1.[Zn+2] | > 80 | 80
3 | – | – | O=C([O-])c1cc(Oc2cc3c(cc2Oc2cc(C(=O)[O-])cc(C(=O)[O-])c2)-c2nc-3nc3[nH]c(nc4nc(nc5[nH]c(n2)c2cc(Oc6cc(C(=O)[O-])cc(C(=O)[O-])c6)c(Oc6cc(C(=O)[O-])cc(C(=O)[O-])c6)cc52)-c2cc(Oc5cc(C(=O)[O-])cc(C(=O)[O-])c5)c(Oc5cc(C(=O)[O-])cc(C(=O)[O-])c5)cc2-4)c2cc(Oc4cc(C(=O)[O-])cc(C(=O)[O-])c4)c(Oc4cc(C(=O)[O-])cc(C(=O)[O-])c4)cc32)cc(C(=O)[O-])c1.[Na+].[Na+].[Na+].[Na+].[Na+].[Na+].[Na+].[Na+].[Na+].[Na+].[Na+].[Na+].[Na+].[Na+].[Na+].[Na+].[Zn] | 80 | 80
